Experimental findings from patent US20100317686A1, “N-HETEROCYCLIC-6-HETEROCYCLIC-IMIDAZO[1,2-a]PYRIDINE-2-CARBOXAMIDE DERIVATIVES, PREPARATION AND THERAPEUTIC USE THEREOF” (sanofi-aventis, priority 2008, published 2010) are described below.

T1 sequence (Q06219 whole entry): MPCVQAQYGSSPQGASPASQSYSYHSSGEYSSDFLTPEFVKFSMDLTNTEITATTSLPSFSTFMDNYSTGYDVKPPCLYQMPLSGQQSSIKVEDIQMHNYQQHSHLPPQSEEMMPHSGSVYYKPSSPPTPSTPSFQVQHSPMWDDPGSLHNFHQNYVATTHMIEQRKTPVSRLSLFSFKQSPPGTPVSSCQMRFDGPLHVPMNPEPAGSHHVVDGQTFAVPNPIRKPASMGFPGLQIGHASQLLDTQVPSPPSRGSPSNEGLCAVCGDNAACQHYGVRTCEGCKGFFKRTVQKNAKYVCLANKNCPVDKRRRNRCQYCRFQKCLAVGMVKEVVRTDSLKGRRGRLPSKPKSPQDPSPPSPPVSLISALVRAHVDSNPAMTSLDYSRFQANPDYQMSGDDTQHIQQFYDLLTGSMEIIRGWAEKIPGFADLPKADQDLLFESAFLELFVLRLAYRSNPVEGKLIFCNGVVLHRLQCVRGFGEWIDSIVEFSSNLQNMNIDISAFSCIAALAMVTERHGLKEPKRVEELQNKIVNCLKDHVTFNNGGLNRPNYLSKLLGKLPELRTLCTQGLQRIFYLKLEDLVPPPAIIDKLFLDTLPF

This test has as its target T1, murine Nurr1 receptor (Mus musculus, UniProt Q06219).
T1 construct: a cell line (N2A) endogenously expressing the murine Nurr1 receptor; host or cells: Neuro-2A (N2A) mouse neuroblastoma cells stably transfected with 8NBRE-luciferase
Description: In vitro activity on N2A cells (Neuro-2A stably transfected with 8NBRE-luciferase reporter). It counts as cell-based. As to conditions: N2A-8NBRE cells, 24 hours incubation with product. On the procedure: The activity of the compounds according to the invention was evaluated on a cell line (N2A) endogenously expressing the murine Nurr1 receptor and stably transfected with the NOT binding response element (NBRE) coupled to the luciferase reporter gene. The EC50 values are between 0.01 and 1000 nM. The tests were performed according to the procedure described hereinbelow.
The cell line Neuro-2A is obtained from a standard commercial source (ATCC). The clone Neuro-2A was obtained from a spontaneous tumour originating from a strain of albino mice A by R. J Klebe et al. This line Neuro-2A is then stably transfected with 8NBRE-luciferase. The N2A-8NBRE cells are cultured to the point of confluence in 75 cm^2 culture flasks containing DMEM supplemented with 10% foetal calf serum, 4.5 g/L of glucose and 0.4 mg/ml of geneticin. After culturing for one week, the cells are recovered with 0.25% trypsin for 30 seconds and then resuspended in DMEM without phenol red, containing 4.5 g/L of glucose and 10% Hyclone defatted serum, and placed in white, transparent-based 96-well plates. The cells are deposited at a rate of 60 000 per well in 75 μL for 24 hours before adding the products. The products are applied in 25 μL and incubated for a further 24 hours. On the day of measurement, an equivalent volume (100 μL) of Steadylite is added to each well, and the wells are then left for 30 minutes to obtain complete lysis of the cells and maximum production of the signal. The plates are then measured in a microplate luminescence counter, after having been sealed with an adhesive film. The products are prepared in the form of a 10^−2 M stock solution, and then diluted in 100% of DMSO. Each concentration of product is prediluted in culture medium before incubation with the cells thus containing 0.625% final of DMSO.
A general note: A reporter such as luciferase makes a cellular process visible.
As to `O=C(Nc1nncs1)c1cn2cc(-c3cc[nH]c3)ccc2n1` [Compound 51, 6-(1H-Pyrrol-3-yl)-N-(1,3,4-thiadiazol-2-yl)imidazo[1,2-a]pyridine-2-carboxamide], the EC50 (in general, the concentration giving half of the maximal effect) was 1.5 nM. This counts as single-digit nanomolar.
With `Nc1cccc(-c2ccc3nc(C(=O)Nc4ccccn4)cn3c2)n1` [Compound 1, 6-(6-Aminopyridin-2-yl)-N-(pyridin-2-yl)imidazo[1,2-a]pyridine-2-carboxamide], the EC50 came to 16 nM. Compared with the last compound, the EC50 is about 11-fold higher.
Turning to `O=C(Nc1nccs1)c1cn2cc(-c3ccccn3)ccc2n1` [Compound 7], the EC50 turned out to be 0.8 nM.
The same measure for `O=C(Nc1cccc(F)n1)c1cn2cc(-c3ccoc3)ccc2n1` [Compound 36, N-(6-Fluoropyridin-2-yl)-6-(furan-3-yl)imidazo[1,2-a]pyridine-2-carboxamide]: 0.4 nM.
Turning to `O=C(Nc1ccon1)c1cn2cc(-c3ccc(CO)o3)ccc2n1` [Compound 22, 6-[5-(Hydroxymethyl)furan-2-yl]-N-(isoxazol-3-yl)imidazo[1,2-a]pyridine-2-carboxamide], the EC50 was 2 nM. This EC50 is about 5-fold higher than that of the compound before.
The same measure for `O=C(Nc1cc[nH]n1)c1cn2cc(-c3ccccn3)ccc2n1` [Compound 10, N-(1H-Pyrazol-3-yl)-6-(pyridin-2-yl)imidazo[1,2-a]pyridine-2-carboxamide]: 21 nM; for `O=C(Nc1ccccn1)c1cn2cc(-c3c[nH]cn3)ccc2n1` [Compound 2, 6-(1H-Imidazol-4-yl)-N-(pyridin-2-yl)imidazo[1,2-a]pyridine-2-carboxamide]: 1.5 nM.
Consider `O=C(Nc1nncs1)c1cn2cc(-c3cc[nH]n3)ccc2n1` [Compound 58, 6-(1H-Pyrazol-3-yl)-N-(1,3,4-thiadiazol-2-yl)imidazo[1,2-a]pyridine-2-carboxamide], for which the EC50 is 5.3 nM.
The value for `O=C(Nc1nccs1)c1cn2cc(-c3cc[nH]n3)ccc2n1` [Compound 56, 6-(1H-Pyrazol-3-yl)-N-(thiazol-2-yl)imidazo[1,2-a]pyridine-2-carboxamide] was 1 nM.
